# According to article PMC10817917, “Alkyl deoxyglycoside-polymyxin combinations against critical priority carbapenem-resistant gram-negative bacteria” (Scientific Reports, 2024):
# “Also recorded” adds a separate entry of the source. Read-outs that look alike come from different tables or passages of the source.
# Columns and labels:
# E. coli ATCC 25922 = assay: Broth microdilution MIC/MBC, glycosides with or without polymyxins; format: cell-based, Escherichia coli; conditions: for MIC: Escherichia coli, ATCC25922
# K. pneumoniae CQ1947 = assay: Broth microdilution MIC, glycosides with or without polymyxins; format: cell-based, Klebsiella pneumoniae; conditions: for MIC: Klebsiella pneumoniae, CQ1947
# A. baumannii CQ4322 = assay: Broth microdilution MIC/MBC, glycosides with or without polymyxins; format: cell-based, Acinetobacter baumannii; conditions: for MIC: Acinetobacter baumannii, CQ4322
# [1] = PE vs phosphatidylcholine (PC); cited from earlier work
# P. aeruginosa CQ4924 = assay: Broth microdilution MIC, glycosides with or without polymyxins; format: cell-based, Pseudomonas aeruginosa; conditions: for MIC: Pseudomonas aeruginosa, CQ4924
# [2] = alone, read-out: MICA (MIC of each compound individually)
# [3] = combination with the lowest FICI
# [4] = compound + colistin, lowest FICI
compound,measurement,setting,value
"CCCCCCCCCCCCO[C@@H]1C[C@@H](O)[C@H](O)[C@@H](CO)O1 [Compound 4, dodecyl 2-deoxy-α-D-arabino-hexopyranoside]",MIC of colistin in combination with the compound,"E. coli ATCC 25922; Cpd conc. 0.4 μg/mL, strain A",0.5 µg/mL
same,MIC of colistin in combination with the compound,"E. coli ATCC 25922; Cpd conc. 0.8 μg/mL, strain A",0.5 µg/mL
same,MIC of colistin in combination with the compound,"E. coli ATCC 25922; Cpd conc. 3.125 μg/mL, strain A",0.5 µg/mL
same,MIC of colistin in combination with the compound,"E. coli ATCC 25922; Cpd conc. 6.25 μg/mL, strain A",0.5 µg/mL
same,MIC of colistin in combination with the compound,"E. coli ATCC 25922; Cpd conc. 12.5 μg/mL, strain A",0.5 µg/mL
same,MIC of colistin in combination with the compound,"E. coli ATCC 25922; Cpd conc. […], strain A",0.5 µg/mL
same,MIC,"E. coli ATCC 25922; agent alone, no adjuvant (polymyxin conc. 0), strain A, read-out: MIC",> 100 µg/mL
same,MIC,E. coli ATCC 25922; [2],> 100 µg/mL
same,MIC of compound in combination with PMB,"E. coli ATCC 25922; PMB 0.25 μg/mL, strain A",> 100 µg/mL
same,MIC of compound in combination with PMB,"E. coli ATCC 25922; PMB 0.5 μg/mL, strain A",≤ 0.1 µg/mL
same,MIC of compound in combination with colistin,"E. coli ATCC 25922; colistin 0.5 μg/mL, strain A",≤ 0.1 µg/mL
same,MICA(A + B) (MIC of compound in combination with colistin),E. coli ATCC 25922; [3],0.4 µg/mL
same,MICB(A + B) (MIC of colistin in combination with compound),E. coli ATCC 25922; [3],0.5 µg/mL
same,Interpretation (of FICI),E. coli ATCC 25922; compound + colistin,Indifferent (1.0 to 4.0 were indifferent)
same,FICI,E. coli ATCC 25922; [4],1.002
same,MIC of colistin in combination with the compound,"K. pneumoniae CQ1947; Cpd conc. 0.4 μg/mL, strain F",0.5 µg/mL
same,MIC of colistin in combination with the compound,"K. pneumoniae CQ1947; Cpd conc. 0.8 μg/mL, strain F",0.5 µg/mL
same,MIC of colistin in combination with the compound,"K. pneumoniae CQ1947; Cpd conc. 3.125 μg/mL, strain F",0.5 µg/mL
same,MIC of colistin in combination with the compound,"K. pneumoniae CQ1947; Cpd conc. 6.25 μg/mL, strain F",0.5 µg/mL
same,MIC of colistin in combination with the compound,"K. pneumoniae CQ1947; Cpd conc. 12.5 μg/mL, strain F",0.5 µg/mL
same,MIC of colistin in combination with the compound,"K. pneumoniae CQ1947; Cpd conc. […], strain F",0.5 µg/mL
same,MIC,"K. pneumoniae CQ1947; agent alone, no adjuvant (polymyxin conc. 0), strain F, read-out: MIC",> 100 µg/mL
same,MIC,K. pneumoniae CQ1947; [2],> 100 µg/mL
same,MIC of compound in combination with PMB,"K. pneumoniae CQ1947; PMB 0.25 μg/mL, strain F",> 100 µg/mL
same,MIC of compound in combination with PMB,"K. pneumoniae CQ1947; PMB 0.5 μg/mL, strain F",> 100 µg/mL
same,MIC of compound in combination with colistin,"K. pneumoniae CQ1947; colistin 0.25 μg/mL, strain F",> 100 µg/mL
same,MIC of compound in combination with colistin,"K. pneumoniae CQ1947; colistin 0.5 μg/mL, strain F",≤ 0.1 µg/mL
same,MICA(A + B) (MIC of compound in combination with colistin),K. pneumoniae CQ1947; [3],0.4 µg/mL
same,MICB(A + B) (MIC of colistin in combination with compound),K. pneumoniae CQ1947; [3],0.5 µg/mL
same,Interpretation (of FICI),K. pneumoniae CQ1947; compound + colistin,Indifferent (1.0 to 4.0 were indifferent)
same,FICI,K. pneumoniae CQ1947; [4],1.002
same,MIC,"A. baumannii CQ4322; agent alone, no adjuvant (polymyxin conc. 0), strain G, read-out: MIC",> 100 µg/mL
same,MIC,A. baumannii CQ4322; [2],> 100 µg/mL
same,MIC of colistin in combination with the compound,"A. baumannii CQ4322; Cpd conc. 0.4 μg/mL, strain G",0.5 µg/mL
same,MIC of colistin in combination with the compound,"A. baumannii CQ4322; Cpd conc. 0.8 μg/mL, strain G",0.5 µg/mL
same,MIC of colistin in combination with the compound,"A. baumannii CQ4322; Cpd conc. 3.125 μg/mL, strain G",0.5 µg/mL
same,MIC of colistin in combination with the compound,"A. baumannii CQ4322; Cpd conc. 6.25 μg/mL, strain G",0.5 µg/mL
same,MIC of colistin in combination with the compound,"A. baumannii CQ4322; Cpd conc. 12.5 μg/mL, strain G",0.5 µg/mL
same,MIC of colistin in combination with the compound,"A. baumannii CQ4322; Cpd conc. […], strain G",0.5 µg/mL
same,MIC of compound in combination with PMB,"A. baumannii CQ4322; PMB 0.25 μg/mL, strain G",> 100 µg/mL
same,MIC of compound in combination with colistin,"A. baumannii CQ4322; colistin 0.25 μg/mL, strain G",> 100 µg/mL
same,MIC of compound in combination with colistin,"A. baumannii CQ4322; colistin 0.5 μg/mL, strain G",≤ 0.1 µg/mL
same,MICA(A + B) (MIC of compound in combination with colistin),A. baumannii CQ4322; [3],0.4 µg/mL
same,MICB(A + B) (MIC of colistin in combination with compound),A. baumannii CQ4322; [3],0.5 µg/mL
same,Interpretation (of FICI),A. baumannii CQ4322; compound + colistin,Indifferent (1.0 to 4.0 were indifferent)
same,FICI,A. baumannii CQ4322; [4],1.002
same,interaction with phosphatidylethanolamine (PE),[1],Non PE-binder; also recorded: limited affinity towards PE
same,MIC of colistin in combination with the compound,"P. aeruginosa CQ4924; Cpd conc. 0.4 μg/mL, strain H",> 0.5 µg/mL
same,MIC of colistin in combination with the compound,"P. aeruginosa CQ4924; Cpd conc. 0.8 μg/mL, strain H",> 0.5 µg/mL
same,MIC of colistin in combination with the compound,"P. aeruginosa CQ4924; Cpd conc. 3.125 μg/mL, strain H",> 0.5 µg/mL
same,MIC of colistin in combination with the compound,"P. aeruginosa CQ4924; Cpd conc. 6.25 μg/mL, strain H",> 0.5 µg/mL
same,MIC of colistin in combination with the compound,"P. aeruginosa CQ4924; Cpd conc. 12.5 μg/mL, strain H",> 0.5 µg/mL
same,MIC of colistin in combination with the compound,"P. aeruginosa CQ4924; Cpd conc. […], strain H",> 0.5 µg/mL
same,MIC of compound in combination with PMB,"P. aeruginosa CQ4924; PMB 0.25 μg/mL, strain H",> 100 µg/mL
same,MIC of compound in combination with PMB,"P. aeruginosa CQ4924; PMB 0.5 μg/mL, strain H",> 100 µg/mL
same,MIC,"P. aeruginosa CQ4924; agent alone, no adjuvant (polymyxin conc. 0), strain H, read-out: MIC",> 100 µg/mL
same,MIC,P. aeruginosa CQ4924; [2],> 100 µg/mL
same,MIC of compound in combination with colistin,"P. aeruginosa CQ4924; colistin 0.25 μg/mL, strain H",> 100 µg/mL
